# Laboratory results: patent US20260272952A1, “CANNABINOIDS FOR TREATING NEUROINFLAMMATION” (Lundquist Institute for Biomedical Innovation at …, priority 2022, published 2026)
# System: MPS IIIA neurons
# Experiment: GABARAPL2 western blot in iPSC-derived cortical neurons treated with CBD
# Type: cell-based, human
# Settings: CBD 1 μM and 5 μM, cortical neurons from MPS IIIA patients' iPSCs, with or without Bafilomycin A1 200 nM
# Description: HCNT: human health controls; MPS IIIA: MPS IIIA forebrain neurons.
# Cortical neurons differentiated from healthy control and MPS IIIA patients' iPSCs. […] GABARAPL2, a protein which involves in autophagy, was measured in a western blot assay (see FIG. 3).
substance,measurement,value
Cannabidiol [CBD],GABARAPL2 accumulation,decreases
